According to PubChem BioAssay AID1117352:
Calls of active or inactive are those of the source. No rule for the calls is given here.

Test system: DLD-1 viability, CellTiter-Glo ATP luminescence
Assay: DLD-1 viability decrease, dose response, CellTiter-Glo luminescence, IC50 (AID 1117352)

Structure (SMILES)	IC50
CCCCCCCCCCCCCC[N+](C)(C)C	475 nM
Cc1ccc([N+](=O)[O-])[c]2c1[O][Hg]2	1620 nM
O=C1[O][Bi][O]c2ccccc21	> 20000 nM (inactive)
CC(=O)[O][Hg][c]1ccccc1	736 nM
OCCN1CCN(CC/C=C2/c3ccccc3Sc3ccc(C(F)(F)F)cc32)CC1	1470 nM
O=C(O)C1(C(=O)O)CCC1.[NH2-].[NH2-].[Pt+2]	> 20000 nM (inactive)
